Test results reported in US20120021967A1, “SYNTHETIC ANTIBODIES” (Arizona Board of Regents, A Body Corporate of the State Of …, priority 2008, published 2012).
Each block holds one molecule with its values, some of them ahead of it. Where a SMILES comes first, the peptide text is derived from it. Where no end group is shown, it is not given here.

What was measured:
human α-thrombin = biological target: T1, human α-thrombin (Homo sapiens, UniProt P00734); assay: ELISA-type assay on thrombin-coated wells; type: binding; conditions: read-out: Dissociation constant estimated from ELISA-type assay
T1 construct: human α-thrombin
Protocol: Binding to thrombin was evaluated in an ELISA-type assay. Wells of a 96 well plate were coated with 100 μL of 30 μg/mL human α-thrombin and incubated at 4C overnight. The plate was washed twice with DDI H2O and passivated with 3% BSA in 1×PBS buffer for 1 hour. The plate was shaken out and 50 μL of varying concentrations of analyte (DNA tile synbody, DNA tile with each aptamer with the other not present, and each aptamer alone, respectively) were incubated at RT for 1 hour. DNA tiles were biotin-modified at the 5′ end of one of the distal DNA strands 346 (see FIG. 26(a)). The plate was rinsed 10 times in 1×PBS and 50 μL of 1:1000 dilution of streptavidin-HRP in 0.1% BSA in 1×PBS was pipetted and incubated for 1 hour at RT. The plate was again rinsed and 50 μL of TMB was added and incubated at RT for 15 minutes. 50 μL of 0.5M HCl was added and the plate was read immediately. Results are shown in FIG. 27 for the DNA tile synbody 350; the DNA tile with Apt1 but not Apt2 present 352; the DNA tile with Apt2 but not Apt1 present 356; Apt1 alone 354; and Apt2 alone 358. Dissociation constant values estimated from this assay were about 1 nM for the DNA tile synbody, about 10 nM for Apt1 alone, and more than 1 μM for Apt2 alone.

transferrin [1] = biological target: T2, transferrin (Homo sapiens, UniProt P02787); assay: SPR (Biacore T100) steady state affinity of mRNA display clones on immobilized transferrin; type: binding; conditions: for Kd: steady state affinity model, 32 to 0.0625 μM
Protocol: Five clones (see Table 15) were selected, synthesized and purified by HPLC for characterization by surface plasmon resonance (SPR) (T100 instrument from Biacore). Transferrin was immobilized using standard NHS/EDC immobilization chemistry according to the methods described in Frostell-Karlsson, A., Remaeus, A., Andersson, K., Borg, P., Hamalainen, M., and Karlsson, R. (2000) J. Med. Chem. 43, resulting in 9758 RU of immobilized protein. HPLC purified peptides were injected over the surface and sensograms were recorded at multiple concentrations (32, 16, 8, 4, 2, 1, 0.5, 0.25, 0.125. and 0.0625 μM). Affinity plots were generated for each peptide and fit using a steady state affinity model.

transferrin [2] = biological target: T2, transferrin; assay: SPR characterization of TRF26 lead and point-mutant peptides against transferrin; type: binding
Source text: In this example, a small library of ˜300 variant peptides was synthesized in 96-well format. […] The lead peptide (TRF26, see Table 6) was selected as a moderate-affinity binder of the target protein transferrin. The library of variant peptides contained all possible point mutations of the lead peptide using the following set of amino acids {M,A,V,P,L,I,G,W,Y,F,S,T,N,Q,K,R,H,D,E}.
Relative affinities/specificities of the lead peptide and point-mutants were characterized using SPR as follows:
Peptide sample preparation. Lyophilized peptides were individually diluted in 96-well plates to approximately equal concentration (1 mg/ml) in 1×PBST buffer pH 7.4. Peptide sample purity was determined by MALDI-MS analysis of the diluted peptide samples.
SPR gold substrate preparation. Gold substrates used for SPR analysis were first modified with a monolayer of cysteamine by immersing the substrate in a 10 mM cysteamine/EtOH solution for 1 hour, thereby exposing a layer of primary amines just above the gold surface. After addition of the monolayer, the gold substrates were rinsed extensively with EtOH then further modified by immersing in a solution of 2 mM Sulfo-SMCC/PBS pH 7.4 for 1 hour, thereby exposing a surface-bound maleimide which can be used to covalently couple peptides to the gold substrate via the C-terminal cysteine.
Peptide spotting on gold substrate. Diluted peptide samples were spotted on the modified gold substrate using a commercial robotic spotter in an array format. The array contained ˜440 peptide spots (including replicates and blank reference spots), each spot having ˜200 um diameter. Spotted substrates were kept in a humidity chamber overnight to ensure complete reaction between the surface exposed maleimide and the C-terminal cysteine in the peptides. After ˜12-hours, the substrates were washed with PBST buffer to remove excess peptide not bound to the gold substrate. Finally, unreacted maleimide groups were quenched using a 2 mM β-mercaptoethanol/PBST solution thereby presenting a hydrophilic surface in regions not containing peptide.
Determination of target affinity using SPR. Gold substrates containing arrays of peptide variants and the lead peptide were loaded into a FlexChip SPR (Biacore) instrument. To ensure binding specificity, three injections of 0.2% BSA sample were flowed across the array using the FlexChip fluidics. The array was then washed with a continuous 1 mL/min flow of PBST buffer until the sensorgram reached a stable baseline. After reaching a baseline, the array was washed 2 additional minutes using PBST, then a 10 μM Transferrin/PBST sample was injected and continuously recycled over the array surface for 8 minutes. After the recycle the array was washed […] with continuous 1 mL/min PBST flow for 10 minutes. Sensorgrams were continuously recorded during the 2 minute prewash (to ensure baseline stability), 8 minute Transferrin sample recycle and post sample recycle wash.
Quantification of relative target affinities. Sensorgram values were taken from the stability region, that is the region ˜10 seconds into the post sample recycle wash. Sensorgram values at this point should allow identification of peptides that have both high levels of target binding and off-rates slower than the lead peptide. […] Data processing included identification of the mutated position at a particular SPR array spot as well as signal normalization relative to the lead peptide (lead peptide=1), enhanced binders have positive values and reduced binders have negative values.
Two TRF26 point-mutants (P6Y, H12F) were selected for further affinity characterization. The P6Y and H12F point-mutants have dissociation constants of 8.6±1.6 μM and 9.8±1.6 μM respectively. […] A TRF26 double mutant sequence containing the P6Y+H12F mutations was synthesized and characterized.

transferrin [3] = biological target: T2, transferrin; assay: SPR analysis of peptide pairs for binding to distinct sites on immobilized transferrin
Source text: The transferrin target was immobilized on a Biacore T100 SPR chip, and candidate polypeptides were applied in 1:1 mixtures in pairs and response data obtained, in accordance with the methods described in Example 4 above. As illustrated in FIGS. 12A-D, upon flowing candidate polypeptides over the immobilized target, ideally one polypeptide applied alone would bind to a first binding site on the target and produce a first characteristic SPR response level (FIG. 12A), the other polypeptide would bind to a second, distinct binding site on the target, producing a second characteristic response level (FIG. 12B), and a mixture of the two polypeptides together (at the same concentrations as before) would produce a response level approximating the sum of the response levels produced by each polypeptide alone, as the polypeptides bind to distinct binding sites (FIG. 12C).

TNF-α = TNF-α (Homo sapiens, UniProt P01375); assay: SPR (Biacore A100) of TNF1 lead and mutant peptides on captured TNF-α; type: binding; conditions: for koff: kinetic fits of sensorgrams, read-out: off-rate koff
Source text: Scanning Mutagenesis of the TNF1 Lead Peptide. After lead identification, the next step in the AMPLI algorithm is characterization of point mutations in the lead heteropolymer. Using short peptides makes it chemically feasible to synthesize a significant fraction of the point-mutant space, which can then be screened for enhanced point mutations. For example, all possible point mutations in the 17 randomized positions using all 20 natural amino acids could be synthesized and screened within a single 384-well plate (323 total point-mutants). However, libraries containing all 20 natural amino acids are not required for affinity optimization of protein-protein interactions. A library of TNF1 point-mutants containing all substitutions of the amino acid set {Y, A, D, S, K, N, V, W} in each of the 17 randomized positions (132 unique point-mutants) was synthesized. Tyrosine (Y), alanine (A), aspartic acid (D) and serine (S) were selected because of their effectiveness in producing high affinity interactions when substituted into the complementary-determining regions (CDRs) of synthetic antibodies (Felouse, Proceedings of the National Academy of Sciences 101(34):12467, 2004), lysine (K) was selected to balance the charge in the substitution set, asparagine (N), valine (V) and tryptophan (W) were selected to span the hydropathicity range (Kyte J & Doolittle R F, Journal of Molecular Biology 157(1):105-132, 1982). […] This concentration was used to increase the high-end dynamic range for quantifying enhancing point mutations at the expense of low-end dynamic range for quantifying detrimental point mutations.
Point-mutant libraries were prepared in 96-well stock plates From the stock plate, peptides were diluted to 50 μM concentration in Biacore HBS-EP buffer (GE Healthcare, Piscataway, N.J.) containing 1 mg/ml carboxymethyl-dextran (Sigma-Aldrich, St. Louis, Mo.) to reduce non-specific binding to the CM-5 SPR chip surface. […] Spot 3 contained only immobilized neutravidin and served as a reference spot.
Using the prepared 96-well plates and Biacore A100 SPR instrument, four peptides were flowed separately, in parallel, through the four flow cells over all 4 TNF-α spots and the neutravidin reference spot, with a 60 second association phase and 300 second dissociation phase. SPR sensorgrams were recorded for each peptide response with all 4 TNF-α spots and the neutravidin reference spot across the four flow cells on the SPR chip. […]
Purified point-mutant affinities were measured on the Biacore A100 using SPR equilibrium binding response across a series of peptide concentrations on an SPR chip with TNF-α captured as described above. […]

[4] = observed, read-out: dissociation constant
[5] = Table 13A, lead and point-mutants

T2 sequence (P02787 20-698): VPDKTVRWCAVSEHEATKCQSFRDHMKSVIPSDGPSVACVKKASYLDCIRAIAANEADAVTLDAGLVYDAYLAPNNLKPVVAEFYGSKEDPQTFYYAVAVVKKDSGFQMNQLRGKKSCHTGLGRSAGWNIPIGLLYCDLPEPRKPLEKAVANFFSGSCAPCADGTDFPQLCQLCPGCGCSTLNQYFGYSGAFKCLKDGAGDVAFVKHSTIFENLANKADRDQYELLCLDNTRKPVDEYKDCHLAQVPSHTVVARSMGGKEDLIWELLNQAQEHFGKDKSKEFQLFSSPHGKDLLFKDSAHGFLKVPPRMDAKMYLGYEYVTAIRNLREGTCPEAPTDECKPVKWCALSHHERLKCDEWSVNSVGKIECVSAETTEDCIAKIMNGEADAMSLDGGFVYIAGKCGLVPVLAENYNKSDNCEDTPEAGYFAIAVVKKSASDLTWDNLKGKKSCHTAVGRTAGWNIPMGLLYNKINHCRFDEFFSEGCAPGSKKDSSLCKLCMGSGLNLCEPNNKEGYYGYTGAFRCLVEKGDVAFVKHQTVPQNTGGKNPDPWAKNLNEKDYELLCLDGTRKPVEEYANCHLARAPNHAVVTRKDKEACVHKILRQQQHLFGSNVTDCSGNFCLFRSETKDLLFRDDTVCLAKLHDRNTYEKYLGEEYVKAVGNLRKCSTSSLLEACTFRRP
TNF-α, sequence (P01375 77-233 limits assumed, species assumed): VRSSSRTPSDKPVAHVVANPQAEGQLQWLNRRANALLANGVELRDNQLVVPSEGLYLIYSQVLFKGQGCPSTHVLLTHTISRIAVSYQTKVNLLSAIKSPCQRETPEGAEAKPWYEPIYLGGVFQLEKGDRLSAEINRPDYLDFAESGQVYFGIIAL

- Kd (transferrin [1]): > 300 µM
Molecule: CC(C)C[C@H](NC(=O)[C@H](CCCNC(=N)N)NC(=O)[C@@H]1CCCN1C(=O)[C@@H]1CCCN1C(=O)[C@H](CC(=O)O)NC(=O)[C@@H]1CCCN1C(=O)[C@H](C)NC(=O)[C@@H]1CCCN1C(=O)[C@H](CS)NC(=O)[C@H](Cc1c[nH]c2ccccc12)NC(=O)CNC(=O)[C@@H](NC(=O)[C@@H]1CCCN1)[C@@H](C)O)C(=O)N[C@@H](Cc1c[nH]cn1)C(=O)N1CCC[C@H]1C(=O)N[C@@H](CC(C)C)C(=O)N[C@@H](Cc1c[nH]cn1)C(=O)NCC(=O)N[C@@H](CO)C(=O)N[C@@H](CS)C(=O)O [TBPM003] (H-PTGWCPAPDPPRLHPLHGSC-OH)

- Kd (transferrin [1]): > 300 µM
Molecule: C[C@H](N)C(=O)N[C@H](C(=O)N[C@@H](CCCNC(=N)N)C(=O)N[C@@H](Cc1c[nH]c2ccccc12)C(=O)N[C@@H](CS)C(=O)N1CCC[C@H]1C(=O)N[C@@H](CO)C(=O)N[C@@H](C)C(=O)N[C@@H](CCCNC(=N)N)C(=O)N1CCC[C@H]1C(=O)N[C@@H](C)C(=O)N[C@H](C(=O)N1CCC[C@H]1C(=O)N[C@H](C(=O)N[C@H](C(=O)N[C@@H](C)C(=O)N[C@H](C(=O)NCC(=O)N[C@@H](CO)C(=O)N[C@@H](CS)C(=O)O)[C@@H](C)O)[C@@H](C)O)[C@@H](C)O)[C@@H](C)O)[C@@H](C)O [TBPM021] (H-ATRWCPSARPATPTTATGSC-OH)

- binding sites on transferrin (pairs applied in 1:1 mixtures) (transferrin [3]): bind distinct sites on transferrin
- Binding ΔG (transferrin [2]; Table 13C): -5.56 ± 0.10 kcal/mol
- Kd (transferrin [2]; Table 13C, read-out: Kd): 85 ± 14 µM
Molecule: AHKVVPQRQIRHAYNRYGSC [TRF26]

- affinity improvement in comparison to the original peptide TRF26 (transferrin [1]): more than 10 fold
Molecule: AHKVVPQRQMRHAYSRYGSC [TBPM023]

- Binding ΔG (TNF-α; [5]): -5.21 ± 0.07 kcal/mol
- Kd (TNF-α; [5]): 160 ± 19 µM
- koff (TNF-α): 1.6 ± 0.5 s⁻¹
Molecule: FERDPLMMPWSFLQSRQGSC [TNF1]

The next lines start with the molecule.

Molecule: 5′-AGTCCGTGGTAGGGCAGGTTGGGGTGACT-3 [Apt1 alone]
- Kd (human α-thrombin): ~0.01 µM

Molecule: 5′-GGTTGGTGTGGTTGG-3′ [Apt2 alone]
- Kd (human α-thrombin): > 1 µM

Molecule: AHKVVPQRQIRFAYNRYGSC [H12F]
- Binding ΔG (transferrin [2]; Table 13C): -6.85 ± 0.10 kcal/mol
- Component Binding ΔG Contribution (transferrin [2]; Table 13C): -1.29 ± 0.14 kcal/mol
- Kd Fold-Change Relative to Lead (transferrin [2]; Table 13C): 8.8 ± 2.0
- Kd (transferrin [2]; [4]): 9.8 ± 1.6 µM

Molecule: AHKVVYQRQIRFAYNRYGSC [P6Y + H12F]
- Observed Binding ΔG (transferrin [2]; Table 13D): -8.68 ± 0.15 kcal/mol
- Observed Kd Fold-Change Relative to Lead (transferrin [2]; Table 13D): 190 ± 57
- Predicted Binding ΔG (transferrin [2]; Table 13D, energetic additivity): -8.22 ± 0.18 kcal/mol
- Kd (transferrin [2]; [4]): 0.5 ± 0.1 µM

Molecule: AHKVVYQRQIRHAYNRYGSC [P6Y]
- Binding ΔG (transferrin [2]; Table 13C): -6.93 ± 0.11 kcal/mol
- Component Binding ΔG Contribution (transferrin [2]; Table 13C): -1.37 ± 0.15 kcal/mol
- Kd Fold-Change Relative to Lead (transferrin [2]; Table 13C): 10 ± 2.5
- Kd (transferrin [2]; [4]): 8.6 ± 1.6 µM

Molecule: FERSYLKMPWKFLQSRQGSC [TNF1-opt]
- koff (TNF-α): 0.2 ± 0.02 s⁻¹
